What was measured:
[1] = tested on: H929 multiple myeloma cell line; experiment: Anti-proliferation assay (ATPLite, 72 h); type: cell-based, human; design: key: S = lnfX·lnfY·ΣIdata(Idata−ILoewe), volume over Loewe additivity; settings: for synergy (score), PDEi × HE-NECA: 6×6 cross of PDE inhibitor or PDE inhibitor mixture with HE-NECA
Method: (§1) ANBL6 and INA-6 culture media was also supplemented with 10 ng/ml IL-6. […] MM.1S, MM.1R, OCI-ly10, Karpas 422, and SU-DHL6 cells were provided by the Dana Farber Cancer Institute. H929, RPMI-8226, GA-10, and Farage cells were from ATCC (Cat #'s CCL-155, CRL-9068, CRL-2392 and CRL-2630 respectively). MOLP-8, EJM, KSM-12-PE, and OPM2 were from DSMZ. The ANBL6 and INA-6 cell lines were provided by the M. D. Anderson Cancer Research Center. Compounds were prepared in DMSO at 1000× the highest desired concentration. Master plates were generated consisting of serially diluted compounds in 2- or 3-fold dilutions in 384-well format. For single agent dose response curves, the master plates consisted of 9 individual compounds at 12 concentrations in 2- or 3-fold dilutions. For combination matrices, master plates consisted of individual compounds at 6 or 9 concentrations at 2- or 3-fold dilutions. […] To obtain combination data, two master plates were diluted into the assay plates. […] Thirty microliters of ATPLite (Perkin Elmer) at room temperature was then added to each well. […] Measurements were taken at the top of the well using a luminescence aperture and a read time of 0.1 seconds per well. The percent inhibition (% I) for each well was calculated using the following formula: % I=[(avg. untreated wells-treated well)/(avg. untreated wells)]×100. […] Negative inhibition values result from local variations in treated wells as compared to untreated wells. […] The uncertainty of each fitted parameter was estimated from the range over which the change in reduced chi-squared was less than one, or less than minimum reduced chi-squared if that minimum exceeded one, to allow for underestimated σI errors. Single agent curve data were used to define a dilution series for each compound to be used for combination screening in a 6×6 matrix format. […] The Loewe additivity model was used to quantify combination effects. […] A “Synergy Score” was also used, where the Synergy Score S=log fX log fY ΣIdata(Idata-ILoewe), summed over all non-single-agent concentration pairs, and where log fX,Y is the natural logarithm of the dilution factors used for each single agent. This effectively calculates a volume between the measured and Loewe additive response surfaces, weighted towards high inhibition and corrected for varying dilution factors. An uncertainty σS was calculated for each synergy score, based on the measured errors for the Idata values and standard error propagation.

[2] = tested on: RPMI-8226 multiple myeloma cell line; experiment: Anti-proliferation assay (ATPLite, 72 h); type: cell-based, human; design: key: S = lnfX·lnfY·ΣIdata(Idata−ILoewe), volume over Loewe additivity
Method: as §1

[3] = tested on: human multiple myeloma cells (MM.1S); experiment: Anti-proliferation assay (ATPLite, 72 h); type: cell-based; design: key to synergy score / synergy (score), PDEi × HE-NECA: S = lnfX·lnfY·ΣIdata(Idata−ILoewe), volume over Loewe additivity; settings: for synergy (score), PDEi × HE-NECA: 6×6 cross of PDE inhibitor or PDE inhibitor mixture with HE-NECA
Method: as §1

[4] = tested on: human multiple myeloma cells (MM.1R); experiment: Anti-proliferation assay (ATPLite, 72 h); type: cell-based; design: key: S = lnfX·lnfY·ΣIdata(Idata−ILoewe), volume over Loewe additivity
Method: as §1

[5] = tested on: phosphodiesterase (PDE) types; settings: PDE type(s) in brackets after the name; cited from earlier work
[6] = tested on: human multiple myeloma cells (MM.1R) transfected with siRNA; experiment: Anti-proliferation assay after siRNA transfection; type: cell-based; settings: MM.1R, siRNA targeting PDE 2A, HE-NECA 0 nM
Method: siRNA to adenosine receptor A1, A2A, A3, PDE 2A, PDE 3B, PDE 4B, PDE 4D and PDE 7A, and control siRNA siCON were purchased from Dharmacon. A2B siRNA was purchased from Invitrogen. Electroporations were performed using an Amaxa Nucleoporator (program S-20) and solution V. siRNAs were used at 50 nM. […] RNA was isolated using Qiagen RNAeasy kits, and targets quantified by RT-PCR using gene specific primers purchased from Applied Biosystems.
Cells were added to 384-well plates 24 hours prior to compound addition such that each well contained 2000 cells in 35 μL of media. Master plates were diluted 100× (1 μL into 100 μL) into 384-well dilution plates containing only cell culture media. 4.5 μL from each dilution plate was added to each assay plate for a final dilution of 1000×. To obtain combination data, two master plates were diluted into the assay plates. Following compound addition, assay plates were kept at 37° C. and 5% CO2 for 72 hours. Thirty microliters of ATPLite (Perkin Elmer) at room temperature was then added to each well. Final amount of ATP was quantified within 30 minutes using ATPLite luminescent read-out on an Envision 2103 Multilabel Reader (Perkin Elmer). Measurements were taken at the top of the well using a luminescence aperture and a read time of 0.1 seconds per well.
We also examined the antiproliferative activity of adenosine receptor agonists when the MM cell line MM.1R was transfected with siRNA targeting the A1, A2A, A2B or A3 receptor. Specific gene silencing (A1, A2A, A2B, or A3) was greater than 50% as determined by real time PCR analysis 48 hours post-transfection. At 48 hours post-transfection, cells were exposed to adenosine receptor agonist, incubated an additional 72 hours, and compounds assayed for antiproliferative activity. Representative data is in Table 34. Cells transfected with adenosine receptor siRNA or a control siRNA (scrambled sequences designed so that cellular transcriptsare not targeted) were treated with the adenosine receptor agonist ADAC. […] Similar results were obtained with a second siRNA with specificity for different region of the A2A receptor mRNA, confirming that the reduction in adenosine receptor agonist activity is the result of specific siRNA targeting of the A2A receptor (data not shown).
In our experiments, PDE gene silencing was always greater than 50% as confirmed by real time PCR analysis 48 hours post-transfection. At 48 hours post-transfection, cells were exposed to adenosine receptor agonist and PDE inhibitor, incubated an additional 72 hours, and compounds assayed for antiproliferative activity. Representative data is in Tables 39-45. For each analysis, the activity of cells transfected with an siRNA targeting a specific PDE was compared to cells transfected with a control non-targeting siRNA (siCON).

[7] = PDE inhibitor crossed with (S) ENBA, H929
[8] = PDE inhibitor crossed with Chloro-IB-MECA, H929
[9] = PDE inhibitor crossed with HE-NECA, H929
[10] = in combination with adenosine receptor agonist HE-NECA, H929
[11] = in combination with adenosine receptor agonist HE-NECA, RPMI-8226
[12] = PDE inhibitor crossed with Chloro-IB-MECA, MM.1S
[13] = PDE inhibitor crossed with HE-NECA, MM.1S
[14] = in combination with adenosine receptor agonist HE-NECA, MM.1S
[15] = PDE inhibitor crossed with ADAC, H929
[16] = PDE inhibitor crossed with (S) ENBA, MM.1S
[17] = PDE inhibitor crossed with ADAC, MM.1S
[18] = in combination with adenosine receptor agonist CGS-21680, H929
[19] = in combination with adenosine receptor agonist regadenoson, H929
[20] = in combination with adenosine receptor agonist CGS-21680, RPMI 8226
[21] = in combination with adenosine receptor agonist regadenoson, RPMI 8226
[22] = in combination with adenosine receptor agonist CGS-21680, MM.1S
[23] = in combination with adenosine receptor agonist regadenoson, MM.1S
[24] = in combination with adenosine receptor agonist CGS-21680, MM.1R
[25] = in combination with adenosine receptor agonist regadenoson, MM.1R

CN(C(=O)CCCOc1ccc2[nH]c(=O)ccc2c1)C1CCCCC1 [Cilostamide, N-cyclohexyl-4-((1,2-dihydro-2-oxo-6-quinolinyl)oxy)-N-methyl-butanamide]
synergy (score), PDEi × HE-NECA ([1]; H929): 0.56 | synergy score [1, 7]: 1.17 | synergy score [1, 8]: 0.65 | synergy score [1, 9]: 0.28 | synergy score [1, 10]: 1.67 | synergy score [2, 11]: 0.2381 | synergy (score), PDEi × HE-NECA ([3]; MM.1S): 1.02 | synergy score [3, 12]: 1.1 | synergy score [3, 13]: 0.49 | synergy score [3, 14]: 1.637 | synergy score ([4]; in combination with adenosine receptor agonist HE-NECA, MM.1R): 1.692 | PDE inhibitors (specificity) [5]: Cilostamide (3)

COc1ccc(C2CNC(=O)C2)cc1OC1CCCC1 (stereo not drawn) [Rolipram, 4-(3-cyclopentyloxy-4-methoxyphenyl)-2-pyrrolidone]
synergy score [1, 7]: 0.46 | synergy score [1, 15]: 1.11 | synergy score [1, 8]: 0.74 | synergy score [1, 9]: 1.09 | synergy score ([1]; in combination with adenosine receptor agonist ADAC, H929): 1.114 | synergy score [1, 10]: 1.089 | synergy score ([2]; in combination with adenosine receptor agonist ADAC, RPMI-8226): 0.4277 | synergy score [2, 11]: 0.2845 | synergy score [3, 16]: 0.73 | synergy score [3, 17]: 1.15 | synergy score [3, 12]: 1.11 | synergy score [3, 13]: 1.08 | synergy score ([3]; in combination with adenosine receptor agonist ADAC, MM.1S): 1.147 | synergy score [3, 14]: 1.076 | synergy score ([4]; in combination with adenosine receptor agonist ADAC, MM.1R): 4.105 | PDE inhibitors (specificity) [5]: Rolipram (4)

CC(C)Cn1c(=O)n(C)c(=O)c2[nH]cnc21 [IBMX]
synergy score [3, 16]: 0.055 | PDE inhibitors (specificity) [5]: IBMX (pan)

Cc1[nH]c(=O)c(C#N)cc1-c1ccncc1 [milrinone]
synergy score [1, 8]: 0.08 | synergy score [1, 9]: 0.15 | synergy score [3, 16]: 1.31 | synergy score [3, 12]: 0.25 | synergy score [3, 13]: 0.33 | PDE inhibitors (specificity) [5]: Milrinone (3)

CCOC(=O)C1=C[C@]2(CC)CCCN3CCc4c(n1c1ccccc41)[C@@H]32 [Vinoceptine]
synergy score [1, 7]: 0.21 | synergy score [1, 15]: 0.01 | synergy score [1, 9]: 0 | synergy score [3, 16]: 0.25 | synergy score [3, 17]: 0.02 | synergy score [3, 13]: 0.26 | PDE inhibitors (specificity) [5]: Vinoceptine (1)

COc1ccc([C@@H]2CNC(=O)C2)cc1OC1CCCC1 [R-(−)-Rolipram]
synergy (score), PDEi × HE-NECA ([1]; H929): 1.88 | synergy score [1, 18]: 1.93 | synergy score [1, 10]: 2.148 | synergy score [1, 19]: 1.91 | synergy score [2, 20]: 2.03 | synergy score [2, 11]: 1.16 | synergy score [2, 21]: 0.63 | synergy (score), PDEi × HE-NECA ([3]; MM.1S): 2.33 | synergy score [3, 22]: 1.92 | synergy score [3, 14]: 2.965 | synergy score [3, 23]: 1.83 | synergy score [4, 24]: 4.54 | synergy score [4, 25]: 3.62 | Antiproliferative activity ([6]; R-(−)-Rolipram 0.23 μM): 3.8 | Antiproliferative activity ([6]; R-(−)-Rolipram 2 μM): 8.1 | Antiproliferative activity ([6]; R-(−)-Rolipram 6.1 μM): 5.3 | Antiproliferative activity ([6]; R-(−)-Rolipram 18 μM): 7.7 | Antiproliferative activity ([6]; R-(−)-Rolipram […]): −1.2

Nc1nc(N)nc(-c2cc(Cl)ccc2Cl)n1 [Irsogladine]
synergy score [1, 7]: 0.09 | synergy score [1, 8]: 0.05 | synergy score [3, 16]: 0.38 | synergy score [3, 12]: 0.25 | PDE inhibitors (specificity) [5]: Irsogladine (4)

CC(C)C(=O)c1c(C(C)C)nn2ccccc12 [Ibudilast, 1-(2-isopropyl-pyrazolo[1,5-a]pyridine-3-yl)-2-methylpropan-1-one]
synergy score [1, 7]: 0.21 | synergy score [1, 15]: 1.04 | synergy score [1, 8]: 0.32 | synergy score [1, 9]: 0.32 | synergy score [1, 18]: 1.76 | synergy score [1, 19]: 1.08 | synergy score [2, 20]: 0.47 | synergy score [2, 21]: 0.29 | synergy score [3, 16]: 0.55 | synergy score [3, 17]: 0.23 | synergy score [3, 12]: 0.74 | synergy score [3, 13]: 0.98 | synergy score [3, 22]: 2.22 | synergy score [3, 23]: 0.37 | synergy score [4, 24]: 2.29 | synergy score [4, 25]: 1

(R)-Rolipram
synergy score [1, 7]: 0.82 | synergy score [1, 15]: 0.51 | synergy score [1, 8]: 0.63 | synergy score [1, 9]: 2.51 | synergy score [3, 16]: 2.08 | synergy score [3, 17]: 0.97 | synergy score [3, 12]: 0.84 | synergy score [3, 13]: 4.38 | PDE inhibitors (specificity) [5]: (R)-Rolipram (4)

CC(=O)CCCCn1c(=O)c2c(ncn2C)n(C)c1=O [Pentoxifylline]
synergy score [1, 7]: 0.02 | synergy score [1, 8]: 0.02 | synergy score [1, 9]: 0.09 | synergy score [3, 16]: 0.49 | synergy score [3, 12]: 0.05 | synergy score [3, 13]: 0.29 | PDE inhibitors (specificity) [5]: Pentoxifylline (pan)

CN/C(=N\c1ccc(C2=NNC(=O)CC2C)cc1)NC#N (stereo not drawn) [Siguazodan]
synergy score [1, 7]: 0.13 | synergy score [1, 8]: 0.09 | synergy score [1, 9]: 0.08 | synergy score [3, 16]: 1.39 | synergy score [3, 12]: 0.42 | synergy score [3, 13]: 0.72 | PDE inhibitors (specificity) [5]: Siguazodan (3)

Reference: patent US20090047243A1, “COMBINATIONS FOR THE TREATMENT OF B-CELL PROLIFERATIVE DISORDERS” (priority 2007, published 2009)
